Blank lines part the entries; values can stand above or below the compound they belong to.
What was measured:
INS-1E cells [1] = experiment: DNA-fragmentation ELISA in glucose/palmitate stressed cells; format: cell-based, rat; settings: glucose/palmitate 24 hours; for reduction of cytosolic DNA-fragments: 20 μM
Description: (§1) The effects of the substance on cell viability, cell growth and specific apoptotic events such as caspases activity and DNA-fragmentation was monitored. INS-1E cell apoptosis was induced by treatment of cell cultures with toxic concentrations of glucose and palmitate for 24 hours. The substance of interest was added to the medium 1 hour prior to the addition of the toxic agents.
DNA-fragmentation is a comparatively late apoptotic event comprising storage of nucleosomal DNA-fragments as mono- and oligo nucleosomes in the cytoplasm. The incubation of INS1-E cells with high concentrations of glucose and palmitate for 24 hours leads to DNA breakdown and the accumulation of nucleosomal DNA fragments in the cytoplasm. The detectable amount of cytosolic nucleosomal DNA fragments was reduced by about 17%, when cells were treated with the apoptosis inducing agents in combination with 10 μM 4-AKP.
(§2) 10,000 Ins-1E cells were seeded per 96-well (black 96-well tissue culture plates, Falcon #353948) in 100 μl culture medium (RPMI 1640 containing 11 mM glucose, 5% FCS, 10 mM HEPES, 50 μM 2-mercaptoethanol, 1 mM MEM sodium pyruvate, 100 U/ml penicillin, 100 μg/ml streptomycin) and cultivated at 37° C., 5% CO2 in humidified atmosphere for 3 days. Media was changed to 100 μl starvation medium (culture medium with only 5 mM glucose, 1% FCS) and the cells were re-incubated for 1 day. Then media was exchanged to starvation medium containing test substances.
(§3) Apoptosis of Ins-1E cells was induced by addition of a combination of BSA coupled palmitate and glucose (pal/gluc) or a combination of cytokines (cyt) 1 hour after starting the treatment with test substances: pal/gluc: 0.3 mM palmitate:BSA (palmitic acid sodium salt:fatty acid free BSA 6:1) and 25 mM glucose. 10×cyt: 0.04 ng/ml IL-1β and 1 ng/ml IFNγ. The cells were further incubated with test substances and apoptotic inducer for 24 hours.
DNA-fragmentation is a late apoptotic event comprising storage of nucleosomal DNA-fragments as mono- and oligo nucleosomes in the cytoplasm. Their concentration was determined by ELISA (Cell death detection ELISA, Roche, cat. No. 1774425) according to the manufacturers guidelines.

INS-1E cells [2] = experiment: Caspase activity assay in glucose/palmitate stressed cells; format: cell-based, rat
Description: as §1
Caspase activation is a characteristic of early apoptotic cells. The experiment was carried out as described above with the exception that the caspases activity assay was applied instead of the DNA-fragmentation assay (see Example 3 for details).
as §2, §3
Caspase activity is a characteristic of early apoptotic cells. Their activity was quantified by an enzymatic assay (homogeneous caspases assay, Roche, cat. No. 03 005 372 001). Caspase activity was measured 3 hours after addition of caspases substrate according to the manufacturers guidelines.

INS-1E cells [3] = experiment: Glucolipotoxicity induced apoptosis of INS-1E cells (overall assessment); format: cell-based, rat; settings: palmitate and glucose, 24 hours
Description: as §1
The effects of the test compounds on beta cell function were assessed using biological assays monitoring cellular metabolic activity as well as specific apoptotic events in Ins-1E cells.
as §2, §3

INS-1E cells [4] = experiment: Ins-1E cell proliferation assay (BrdU incorporation); format: cell-based, rat
Description: The proliferation rate of Ins-1E cells was determined by monitoring DNA synthesis using a 5-bromo-2′-deoxyuridine (BrdU) incorporation assay. BrdU is a halogenated nucleotide analogue of thymidine that is incorporated into DNA during the S-phase of the cell cycle. Pulse-labeling of DNA with BrdU and subsequent immunohistochemical detection of labeled nuclei was used to study the rate of cell proliferation. The treatment of INS-1E cells with 4-Azakenpaullone for 24 hours increases BrdU incorporation of Ins-1E cells in a concentration dependent manner, reaching a maximum of about 1.4 fold between 5 μM and 10 μM 4-AKP.
The proliferation of Ins-1E insulinoma cells was determined by monitoring DNA synthesis as an indirect parameter of cell proliferation. The incorporation of the thymidine analogue 5-bromo-2′-deoxyuridine (BrdU) during replication into cellular DNA was used to label the DNA of mitotically active cells. After its incorporation into DNA, BrdU was detected by immunoassay.
as §2, with “substances and the cells were further incubated for 24 h. For the last 4 hours BrdU was added to reach a concentration of 10 μM. Cell proliferation ELISA (Cell Proliferation ELISA, BrdU, chemiluminescence, Roche, cat. No. 1669915) was performed according to the manufacturers guidelines.” for “substances.”

INS-1E cells [5] = experiment: Cell number by CyQuant assay; format: cell-based, rat; settings: 24 hours
Description: as §1
as §2, with “substances. […]” for “substances.”
Cell number was measured by staining of cellular DNA with CyQuant dye (CyQuant Cell Proliferation Assay Kit, Molecular Probes, cat. No. C-7026) which becomes fluorescent when bound to DNA. […]

INS-1E cells [6] = experiment: Viability by Alamar Blue reduction under glucose/palmitate; format: cell-based, rat; settings: 24 hours
Description: as §1
as §2, with “substances. […]” for “substances.”
Viability was assessed by mitochondric reduction of the non toxic dye Alamar Blue (Bioscource, cat. No. DAL1025). The dye was added to the cells 4 hours before read-out according to the manufacturers guidelines. Basal fluorescence was measured immediately to be subtracted from the fluorescence after 4 hours. […]

human GSK3 = experiment: IC50 Profiler Express kinase assay; format: biochemical; settings: 10-point curves in duplicate
Description: Experiments were carried out by Upstate Ltd. according to the protocols described in KinaseProfiler™ Assay Protocols, IC50 Profiler Express™ (10-point curves in duplicate) Fall 2004 by Ustate Cell Signaling solutions.

[7] = system: cyclin-dependent kinases (CDKs); experiment: KinaseProfiler biochemical kinase activity assays
Description: (§4) Experiments were carried out by Upstate Ltd. according to the protocols described in KinaseProfiler™ Assay Protocols Fall 2004 by Ustate Cell Signaling solutions.
(§5) Compounds 10c and e are structurally very similar to 1-Azakenpaullone and differ only by one substituent at position 9 of the D ring from their template 1-Azakenpaullone. […] These kinases were selected among about 250 different kinases based on their structural or functional similarity to GSK3, e.g. all available members of the CDK family were included in the survey because CDKs are most similar to GSK3 and several kinase inhibitors are known that inhibit members of both families. The direct comparison of different compounds in such an experiment provides information on the relative selectivity of the respective compounds.

[8] = system: panel of 28 protein kinases; experiment: KinaseProfiler biochemical kinase activity assays; settings: tested in parallel with 1-Azakenpaullone
Description: as §4, §5

SMILES: O=C1Cc2c([nH]c3ccc(O)cc23)-c2ncccc2N1 [Compound 10d, 9-Hydroxy-7,12-dihydropyrido[3′,2′:2,3]azepino[4,5-b]indole-6(5H)-one]
reduction of cytosolic DNA-fragments (INS-1E cells [1]): 23%
reduction of caspase activity (INS-1E cells [2]; 20 μM): 27%
effect on glucolipotoxicity induced apoptosis (INS-1E cells [3]): slightly effects glucolipotoxicity induced apoptosis

SMILES: O=C1Cc2c([nH]c3ccc(C(F)(F)F)cc23)-c2ncccc2N1 [Compound 10l, 9-Trifluoromethyl-7,12-dihydropyrido[3′,2′:2,3]azepino[4,5-b]indol-6(5H)-one]
BrdU incorporation relative to untreated controls (maximum) (INS-1E cells [4]; maximum between 1 μM and 5 μM): about 1.4 fold
effect on glucolipotoxicity induced apoptosis (INS-1E cells [3]): significantly effects glucolipotoxicity induced apoptosis

SMILES: O=C1Cc2c([nH]c3ccc(Br)cc23)-c2cccnc2N1 [4-Azakenpaullone, reference compound]
increase in cell-number relative to untreated controls (INS-1E cells [5]): 1.2 fold
reduction of cytosolic nucleosomal DNA fragments (INS-1E cells [1]; 10 μM): about 17%
reduction of caspase activity (INS-1E cells [2]; 10 μM): 18%
BrdU incorporation relative to untreated controls (maximum) (INS-1E cells [4]; 24 hours, maximum between 5 μM and 10 μM): about 1.4 fold
effect on glucolipotoxicity induced apoptosis (INS-1E cells [3]): slightly antagonizes apoptotic processes
viability of Ins-1E cells subjected to apoptosis inducing concentrations of glucose and palmitate (INS-1E cells [6]): slightly improves the viability

SMILES: O=C1Cc2c([nH]c3ccc(Br)cc23)-c2ncccc2N1 [1-Azakenpaullone, reference compound]
inhibition of human GSK3 (human GSK3): potent inhibitor

SMILES: COc1ccc2[nH]c3c(c2c1)CC(=O)Nc1cccnc1-3 [Compound 10a, 9-Methoxy-7,12-dihydro-pyrido[3′,2′:2,3]azepino[4,5-b]indole-6(5H)-one]
reduction of cytosolic DNA-fragments (INS-1E cells [1]): 44%
reduction of caspase activity (INS-1E cells [2]; 20 μM): 22%
proliferation of INS-1E cells (in words) (INS-1E cells [4]): small effect
BrdU incorporation relative to untreated controls (maximum) (INS-1E cells [4]; at about 10 μM): about 1.2 fold
effect on glucolipotoxicity induced apoptosis (INS-1E cells [3]): moderately prevents glucolipotoxicity induced apoptosis

inhibition of cyclin-dependent kinases (CDKs) [7]: significantly inhibits
kinase selectivity / activity profile [8]: selective kinase inhibitors
SMILES: O=C1Cc2c([nH]c3ccc(Cl)cc23)-c2ncccc2N1 [Compound 10e, 9-Chloro-7,12-dihydropyrido[3′,2′:2,3]azepino[4,5-b]indole-6(5H)-one]
reduction of cytosolic DNA-fragments (INS-1E cells [1]): 23%
reduction of caspase activity (INS-1E cells [2]; 20 μM): 16%
BrdU incorporation relative to untreated controls (maximum) (INS-1E cells [4]; maximum between 1 μM and 10 μM): about 1.7 fold
effect on glucolipotoxicity induced apoptosis (INS-1E cells [3]): slightly prevents glucolipotoxicity induced apoptosis

Reference: patent publication US7968535B2, “Use of azapaullones for preventing and treating pancreatic autoimmune disorders” (Develogen Atkiengesellschaft, priority 2005, dated 2011)
